Literature values as cited in patent US10314326B2, “Composition for reducing food intake” (Natures Remedies Ltd, priority 2009, dated 2019).
Read-outs that look alike come from different tables or passages of the source. No end group written: not given here.

What was measured:
[1] = literature; for reduction in food/calorie intake: pharmacological options
[2] = 14 healthy volunteers
[3] = peripheral injection, rats
[4] = peripheral injection, human subjects
[5] = approximately 20 g per day for 7 days, human volunteers

In the case of `O=C(O)CC(O)(C(=O)O)C(O)C(=O)O` (stereo not drawn) [HCA-SX, hydroxycitric acid], the “decrease in food intake” value ([1]; human studies) is listed as 4%.

In the case of `CCN(CC)C(C)C(=O)c1ccccc1` (stereo not drawn) [diethylpropion], the “reduction in food/calorie intake” value [1] is given as 11-15%.

In the case of `CNCCC(Oc1ccc(C(F)(F)F)cc1)c1ccccc1` (stereo not drawn) [fluoxetin], the “reduction in food/calorie intake” value [1] is given as 13-16%.

For `CC(C)CC(N(C)C)C1(c2ccc(Cl)cc2)CCC1` (stereo not drawn) [sibutramine], the “reduction in food/calorie intake” value [1] is listed as 12-26%.

For beta-glucan, the “food intake and appetite ratings” value [1] is given as “not significantly reduced”.

For fructooligosaccharides, the “food intake and appetite ratings” value [1] is listed as “not significantly reduced”.

In the case of “glucagon-like peptide-1 (7-36) amide (HAEGTFTSDVSSYLEGQAAKEFIAWLVKGR-NH2; UniProt P01275 98-127, looked up) [GLP-1, anorectic gut peptide secreted by the L-cells]”, the “motility in the antro-duodeno-jejunal region” value [2] is listed as “decreases”, the body weight [3] is listed as “decreases” and the food intake [3] is listed as “decreases”. The body weight [4] was “decreases” and the food intake [4] was “decreases”.

In the case of methylcellulose, the “food intake and appetite ratings” value [1] is listed as “not significantly reduced”.

In the case of oligofructose, the “reduction in total intake” value ([1]; human studies) is given as 5% and the “serum GLP-1 levels” value [5] is given as “increased”.

For sodium alginate, the “reduction in energy intake” value ([1]; human studies) is given as 7%.
